Assays:
[1] = target: T1, A1 receptor (Rattus norvegicus, UniProt P25099); conditions: rodent models, blockade of A1 receptor; cited from earlier work
T1 construct: host or cells: rodent (rat) in vivo models
T1 sequence (P25099 1-326): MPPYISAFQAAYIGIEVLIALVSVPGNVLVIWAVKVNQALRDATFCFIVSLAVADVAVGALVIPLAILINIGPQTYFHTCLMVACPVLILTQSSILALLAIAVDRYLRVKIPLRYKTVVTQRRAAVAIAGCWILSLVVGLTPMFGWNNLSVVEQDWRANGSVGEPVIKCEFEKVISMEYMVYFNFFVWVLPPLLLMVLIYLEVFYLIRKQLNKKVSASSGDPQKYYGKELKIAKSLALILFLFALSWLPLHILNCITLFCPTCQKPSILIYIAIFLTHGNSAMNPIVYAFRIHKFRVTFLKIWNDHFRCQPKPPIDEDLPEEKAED

[2] = test system: mouse model; assay: MSX-3 in cisplatin-induced kidney injury mouse model; assay type: in vivo; conditions: vs. cisplatin
Text: FIG. 9. […] (A) BUN quantification. (B) Gene expression of the inflammatory marker Tnfa.

[3] = both in vitro and in vivo; cited from earlier work
[4] = test system: C57BL6/J mice; assay: Sub-chronic cisplatin-induced kidney injury model; assay type: in vivo; conditions: cisplatin 3 mg/kg for six days
Procedure: FIG. 1. Schematic representation of the different animal procedures. (A) Acute cisplatin-induced kidney injury. […] (B) Sub-chronic cisplatin-induced kidney injury. […] (C) KW-6002 administration schedule in the acute model. […] (D) KW-6002 administration schedule in the sub-chronic model.
Animal experiments were adapted from 63-64. Animal procedures were performed in 8 to 10 weeks old male C57B16/J mice (Janvier Labs). Mice were fed a laboratory standard diet with water and food ad libitum and were kept under constant environmental conditions with a 12-hour light-dark cycle. Istradefylline (KW-6002; Tocris) was dissolved in a carrier solution consisting in 15% DMSO, 15% cremophor (Sigma), 70% saline solution (vehicle). Cisplatin (Accord Healthcare) was dissolved in saline solution. […] Three days after this single injection, animals were sacrificed by cervical dislocation (FIG. 1A).
Prior sacrifice by cervical dislocation, retro-orbital blood samples were collected in heparinized tubes and centrifuged for 10 min at 2000 rpm at room temperature. Renal function was assessed by Blood urea nitrogen (BUN) measurement using a AU480 Chemistry Analyzer (Beckman Coulter). At the time of sacrifice, kidneys or LLC1 tumors were harvested and stored in either “RNA later” solution (Thermo Fisher), 4% neutral buffered formalin or snap-frozen in liquid nitrogen.
Formalin-fixed and paraffin-embedded sections (3 μm thick) were stained with Hematoxylin and Eosin (Sigma Aldrich) or Periodic Acid-Schiff (Sigma-Aldrich). Slices were scored by a nephropathologist in a blinded manner. A kidney injury score grading scale from 0 to 5 was used to assess the severity of the injury as follow: 0=no lesions, 1=minimal injury characterized by occurrence of necrosis and debris; 2=mild injury with single cell necrosis, pyknotic cells, and apoptosis; 3=moderate injury characterized by tubular distension, vacuolation, and some cellular debris, 4=severe injury with occasional hyaline casts observed, patchy epithelial necrosis in all segments, loss of epithelial lining; and 5=very severe injury characterized by extensive tubular epithelial necrosis in all segments, loss of epithelial layer from many tubules widespread intraluminal cellular debris, and frequent hyaline casts particularly prominent in the medullary region (67).
Total RNA from kidney samples was extracted with phenol/chloroform and subsequently precipitated in isopropanol as described previously (71). Total RNA from cultured renal cells was extracted using RNeasy Mini kit (Qiagen) following manufacturer's recommendations.
Reverse transcription was performed on 1 μg of RNA using high-capacity cDNA reverse transcription kit (Thermo Fisher), according the manufacturer's recommendation. Real time PCR was performed on a StepOne device using Taqman Gene Expression Master Mix (Thermo Fisher), following manufacturer's recommendations. […]

[5] = test system: kidney mouse sections; assay: Red Oil staining of kidney mouse sections; assay type: in vivo; conditions: cisplatin alone
Procedure: FIG. 6. KW6002 alleviates the cisplatin-induced nephrotoxicity associated with apoptosis, lipid metabolism, and oxidative stress. (A) Tail moment assessed by comet assay; 50 cells/condition were analyzed. (B and C) KW6002 attenuates cisplatin-induced renal lipid accumulation, assessed by Red Oil staining. […] Results are the mean±SEM (n=6-9 mice/group). (F-H) KW6002 attenuated cisplatin-induced oxidative stress in RPTEC/hTERT1 cells. (F and G) Gene expression of Nrf2 (F) and HO1 (G). […] Results are the mean±SEM (n=3 independent experiments).
10 μm frozen kidney mouse sections were fixed with ethanol (60%) then incubated for 15 min with Oil Red O Solution (Fisher Biotech) dissolved in isopropanol. After several washes with ddH2O, samples were incubated 3 min with hematoxylin. Lipid droplets are stained in red whereas nuclei appeared blue. […] RPTEC/hTERT cells were fixed with ethanol (60%) then incubated for 15 min with Oil Red O Solution. The cells were washed three times with ddH2O and incubated 3 min with hematoxylin. Coverslips were rinsed with H2O before mounting on microscope slides using glycerol gelatin aqueous slide mounting medium (Sigma). Quantifications were performed blindly using ImageJ software. […] The resulting red color images were quantified using a custom threshold (0.173 for RPTEC/hTERT cells and 0.140 for kidney stainings).

[6] = test system: kidney transcriptome; assay: RNA-Seq of kidney, sub-chronic protocol; assay type: in vivo, mice; conditions: adjusted p-value<0.01, log 2 fold change±1
Procedure: RNA-seq libraries (n=5-6/group) were generated from 500 ng of total RNA using Illumina® TruSeq® Stranded mRNA Library Prep Kit v2. Briefly, following purification with poly-T oligo attached magnetic beads, the mRNA was fragmented using divalent cations at 94° C. for 2 min. The cleaved RNA fragments were copied into first-strand cDNA using reverse transcriptase and random primers. Strand specificity was achieved by replacing dTTP with dUTP during the second-strand cDNA synthesis by DNA polymerase I and RNase H. Following the addition of a single “A” base and the subsequent ligation of the adapter on double-stranded cDNA fragments, the products were purified and enriched with PCR [30 s at 98° C.; (10 s at 98° C., 30 s at 60° C., 30 s at 72° C.)×12 cycles; 5 min at 72° C.] to create the cDNA library. Surplus PCR primers were further removed by purification using AMPure XP beads (Beckman Coulter), and the final cDNA libraries were checked for quality and quantified using capillary electrophoresis. Sequencing was performed on the Illumina® Genome Hiseq4000 as single-end 50 base reads following Illumina's instructions. Reads were mapped onto the mm 10 assembly of Mus musculus genome using STAR v2.5.3a (72). Only uniquely aligned reads were kept for further analyses. Quantification of gene expression was performed using HTSeq-count v0.6.1p1 (73) and gene annotations from Ensembl releases 90 and 102 and “union” mode. Read counts were normalized across libraries with the method proposed by Ander et al. (74). Comparisons of interest were performed using the test for differential expression proposed by Love et al. (75) and implemented in the DESeq2 Bioconductor library (v1.16.1). Resulting p-values were adjusted for multiple testing using the Benjamini and Hochberg method (76). RNA-sequencing was performed by Plateforme GenomEast, Institut de Génétique et de Biologie Moléculaire et Cellulaire, UMR 7104 CNRS-UdS/INSERM U964 (Illkirch, France). Sequencing data that support the findings of this study have been deposited in GEO with the primary accession code GSE179247. […]

CCCn1c(=O)c2[nH]c(C3CCCC3)nc2n(CCC)c1=O [8-cyclopentyl-1,3-dipropylxanthine]
protection against cisplatin nephrotoxicity [1]: protective against cisplatin nephrotoxicity

CCCn1c(=O)c2[nH]c(C34CC5CC(CC3C5)C4)nc2n(CCC)c1=O [KW-3902]
protection against cisplatin nephrotoxicity [1]: protective against cisplatin nephrotoxicity

C#CCn1c(=O)c2c(nc(/C=C/c3cccc(OC)c3)n2C)n(CCCOP(=O)([O-])[O-])c1=O.[Na+].[Na+] [MSX-3]
BUN ([2]; FIG. 9A): significant reduction of BUN | mRNA levels of Tnfα ([2]; FIG. 9B): lower mRNA levels of Tnfα

Cn1c(=O)c2c(ncn2C)n(C)c1=O [caffeine]
anti-tumoral effect of cisplatin [3]: potentiate the anti-tumoral effect of cisplatin

N.N.[Cl][Pt][Cl] [cisplatin, cis-diamminedichloroplatinum (II)]
histological lesions [4]: severe histological lesions | mRNA expression of Il6 [4]: increased mRNA expression | mRNA expression of Tnf [4]: increased mRNA expression | mRNA levels of KIM-1 [4]: significantly increased | mRNA levels of NGAL [4]: significantly increased | blood urea nitrogen (BUN) levels ([4]; data not shown): increased blood urea nitrogen (BUN) levels | lipid droplets in kidney [5]: induced an accumulation of lipid droplets | genes downregulated in kidney [6]: 2299 genes | genes upregulated in kidney [6]: 2350 genes | genes whose expression is impacted in kidney [6]: 4649 genes

CCCn1c(=O)c2nc(C34CCC(CCC(=O)O)(CC3)CC4)[nH]c2n(CCC)c1=O [tonapofylline]
protection against cisplatin nephrotoxicity [1]: protective against cisplatin nephrotoxicity
